{"source": "ChEMBL document CHEMBL5096151", "about": "“Phytocannabinoid Pharmacology: Medicinal Properties of Cannabis sativa Constituents Aside from the \"Big Two\"” (J Nat Prod, 2021)", "key": {"[1]": {"biological_target": "T1, Transient receptor potential cation channel subfamily A member 1 (Homo sapiens, UniProt O75762)", "T1 sequence (O75762 whole entry)": "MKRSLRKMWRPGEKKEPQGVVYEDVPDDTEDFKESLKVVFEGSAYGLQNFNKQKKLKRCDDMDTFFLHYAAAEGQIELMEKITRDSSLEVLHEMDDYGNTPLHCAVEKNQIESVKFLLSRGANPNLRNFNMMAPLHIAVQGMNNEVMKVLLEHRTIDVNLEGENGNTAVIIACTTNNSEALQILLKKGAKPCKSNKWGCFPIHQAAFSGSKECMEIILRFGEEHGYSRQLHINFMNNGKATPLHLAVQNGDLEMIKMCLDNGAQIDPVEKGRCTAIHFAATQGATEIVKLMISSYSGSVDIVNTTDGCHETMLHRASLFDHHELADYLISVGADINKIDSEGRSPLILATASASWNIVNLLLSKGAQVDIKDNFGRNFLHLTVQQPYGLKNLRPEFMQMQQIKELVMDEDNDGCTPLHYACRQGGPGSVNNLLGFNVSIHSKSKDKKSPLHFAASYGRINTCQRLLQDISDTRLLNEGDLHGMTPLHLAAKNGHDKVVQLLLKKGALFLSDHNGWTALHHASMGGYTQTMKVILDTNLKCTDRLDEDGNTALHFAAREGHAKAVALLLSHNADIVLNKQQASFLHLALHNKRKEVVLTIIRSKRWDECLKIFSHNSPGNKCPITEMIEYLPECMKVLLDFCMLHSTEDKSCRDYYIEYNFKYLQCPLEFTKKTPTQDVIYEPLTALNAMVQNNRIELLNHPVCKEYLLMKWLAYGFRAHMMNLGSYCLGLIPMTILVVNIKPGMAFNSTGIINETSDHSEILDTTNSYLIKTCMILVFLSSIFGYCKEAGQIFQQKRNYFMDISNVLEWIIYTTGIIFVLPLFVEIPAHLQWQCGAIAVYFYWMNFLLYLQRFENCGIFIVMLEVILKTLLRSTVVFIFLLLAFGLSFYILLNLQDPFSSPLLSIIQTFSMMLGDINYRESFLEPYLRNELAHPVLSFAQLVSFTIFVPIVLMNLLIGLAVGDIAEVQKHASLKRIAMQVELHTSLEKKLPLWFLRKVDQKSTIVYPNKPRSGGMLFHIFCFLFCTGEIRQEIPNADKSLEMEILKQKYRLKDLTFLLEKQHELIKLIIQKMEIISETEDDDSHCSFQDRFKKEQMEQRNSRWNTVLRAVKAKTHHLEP", "experiment": "Agonist activity at TRPA1 (unknown origin) channel desensitization in presence of isothiocyanate"}, "[2]": {"biological_target": "T2, Transient receptor potential cation channel subfamily V member 1 (Homo sapiens, UniProt Q8NER1)", "T2 sequence (Q8NER1 whole entry)": "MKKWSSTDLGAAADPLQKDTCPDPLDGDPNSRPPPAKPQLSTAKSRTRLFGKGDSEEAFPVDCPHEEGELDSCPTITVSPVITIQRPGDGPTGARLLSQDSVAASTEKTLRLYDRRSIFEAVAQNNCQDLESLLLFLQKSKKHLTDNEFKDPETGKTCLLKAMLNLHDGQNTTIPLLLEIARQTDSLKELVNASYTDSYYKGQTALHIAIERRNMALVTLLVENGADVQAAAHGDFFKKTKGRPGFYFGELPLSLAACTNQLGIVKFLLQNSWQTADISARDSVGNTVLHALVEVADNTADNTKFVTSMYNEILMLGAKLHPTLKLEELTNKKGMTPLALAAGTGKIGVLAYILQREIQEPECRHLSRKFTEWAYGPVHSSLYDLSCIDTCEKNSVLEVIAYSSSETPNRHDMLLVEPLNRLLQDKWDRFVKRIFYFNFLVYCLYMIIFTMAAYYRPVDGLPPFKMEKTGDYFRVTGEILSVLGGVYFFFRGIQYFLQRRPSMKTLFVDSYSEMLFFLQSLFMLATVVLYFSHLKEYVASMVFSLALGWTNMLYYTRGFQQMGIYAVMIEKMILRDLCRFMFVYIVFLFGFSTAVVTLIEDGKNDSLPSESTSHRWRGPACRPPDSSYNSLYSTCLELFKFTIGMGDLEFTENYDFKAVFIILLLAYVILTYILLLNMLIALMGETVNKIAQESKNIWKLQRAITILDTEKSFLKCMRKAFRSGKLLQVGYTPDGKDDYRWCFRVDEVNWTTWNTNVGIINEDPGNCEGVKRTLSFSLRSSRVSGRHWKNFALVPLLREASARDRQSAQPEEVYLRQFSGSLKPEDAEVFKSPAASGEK", "experiment": "Agonist activity at ionomycin-stimulated TRPV1 (unknown origin) activation assessed as efficacy relative to control", "conditions": "filed as agonist"}, "[3]": {"biological_target": "T2, Transient receptor potential cation channel subfamily V member 1", "experiment": "Agonist activity at TRPV1 (unknown origin) ion channel"}, "[4]": {"biological_target": "T3, Transient receptor potential cation channel subfamily V member 3 (Homo sapiens, UniProt Q8NET8)", "T3 sequence (Q8NET8 whole entry)": "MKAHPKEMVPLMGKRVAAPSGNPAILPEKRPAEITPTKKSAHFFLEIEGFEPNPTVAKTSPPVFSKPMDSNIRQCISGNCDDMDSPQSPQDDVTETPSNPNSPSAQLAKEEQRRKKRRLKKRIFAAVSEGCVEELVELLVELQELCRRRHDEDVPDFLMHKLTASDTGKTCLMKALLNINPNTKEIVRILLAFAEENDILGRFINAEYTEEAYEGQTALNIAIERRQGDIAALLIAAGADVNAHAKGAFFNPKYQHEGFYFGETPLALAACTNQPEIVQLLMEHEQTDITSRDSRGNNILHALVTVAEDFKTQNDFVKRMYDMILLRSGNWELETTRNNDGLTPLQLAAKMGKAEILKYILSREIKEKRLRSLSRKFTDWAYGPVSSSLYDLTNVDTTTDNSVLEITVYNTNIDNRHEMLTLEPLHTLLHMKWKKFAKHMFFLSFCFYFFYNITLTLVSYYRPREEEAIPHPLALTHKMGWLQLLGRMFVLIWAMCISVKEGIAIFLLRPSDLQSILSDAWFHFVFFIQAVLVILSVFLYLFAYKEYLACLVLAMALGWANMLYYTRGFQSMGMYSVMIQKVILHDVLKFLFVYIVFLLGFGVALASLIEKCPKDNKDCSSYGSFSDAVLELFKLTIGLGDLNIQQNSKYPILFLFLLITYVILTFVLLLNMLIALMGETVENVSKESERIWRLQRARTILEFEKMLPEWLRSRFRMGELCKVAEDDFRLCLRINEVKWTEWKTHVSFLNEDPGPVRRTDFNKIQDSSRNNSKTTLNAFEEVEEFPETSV", "experiment": "Agonist activity at ionomycin-stimulated TRPV3 (unknown origin) activation"}, "[5]": {"biological_target": "T2, Transient receptor potential cation channel subfamily V member 1", "experiment": "Agonist activity at ionomycin-stimulated TRPV1 (unknown origin) activation"}, "Cannabinoid receptor 2 [6]": {"biological_target": "T4, Cannabinoid receptor 2 (Homo sapiens, UniProt P34972)", "T4 sequence (P34972 whole entry)": "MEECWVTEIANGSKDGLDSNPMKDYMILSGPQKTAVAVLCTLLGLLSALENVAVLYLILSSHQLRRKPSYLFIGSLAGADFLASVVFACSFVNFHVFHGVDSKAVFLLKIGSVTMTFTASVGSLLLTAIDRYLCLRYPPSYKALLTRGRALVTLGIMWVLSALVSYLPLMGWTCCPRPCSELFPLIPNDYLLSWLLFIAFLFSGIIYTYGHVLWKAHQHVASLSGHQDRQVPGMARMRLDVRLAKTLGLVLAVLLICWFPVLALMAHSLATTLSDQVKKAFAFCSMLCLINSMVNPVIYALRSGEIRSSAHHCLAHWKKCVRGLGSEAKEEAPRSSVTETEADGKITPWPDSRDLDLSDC", "experiment": "Agonist activity at CB2 receptor (unknown origin) expressed in CHO cell membranes assessed as increase in [35S]GTPgammaS binding incubated for 60 mins by liquid scintillation spectrometry analysis", "format": "functional, Membrane"}, "[7]": {"biological_target": "T1, Transient receptor potential cation channel subfamily A member 1", "experiment": "Agonist activity at TRPA1 (unknown origin) channel desensitization in presence of icilin"}, "[8]": {"biological_target": "T5, G-protein coupled receptor 55 (Homo sapiens, UniProt Q9Y2T6)", "T5 sequence (Q9Y2T6 whole entry)": "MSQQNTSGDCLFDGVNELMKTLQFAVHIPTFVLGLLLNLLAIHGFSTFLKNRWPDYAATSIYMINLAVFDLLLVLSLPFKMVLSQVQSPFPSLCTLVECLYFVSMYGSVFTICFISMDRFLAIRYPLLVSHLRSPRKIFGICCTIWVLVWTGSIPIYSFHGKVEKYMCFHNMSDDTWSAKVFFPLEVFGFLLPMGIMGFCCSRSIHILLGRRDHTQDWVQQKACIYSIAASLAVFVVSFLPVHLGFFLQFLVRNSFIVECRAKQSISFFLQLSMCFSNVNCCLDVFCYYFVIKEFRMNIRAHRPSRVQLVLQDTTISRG", "experiment": "Antagonist activity at GPR55 (unknown origin) expressed in HEK293 cells assessed as LPI-stimulated ERK1/2 phosphorylation", "format": "functional, cell-based"}, "Cannabinoid receptor 1 [9]": {"biological_target": "Cannabinoid receptor 1 (Homo sapiens, UniProt P21554)", "experiment": "Binding affinity to CB1 (unknown origin) receptor assessed as inhibition constant"}, "[10]": {"biological_target": "Transient receptor potential cation channel subfamily M member 8 (Homo sapiens, UniProt Q7Z2W7)", "experiment": "Antagonist activity at TRPM8 (unknown origin) ion channel"}, "[11]": {"biological_target": "T1, Transient receptor potential cation channel subfamily A member 1", "experiment": "Agonist activity at TRPA1 (unknown origin) activation assessed as efficacy relative to control", "conditions": "filed as agonist"}, "[12]": {"biological_target": "5-hydroxytryptamine receptor 1A (Rattus norvegicus) (UniProt P19327)", "sequence (P19327 whole entry)": "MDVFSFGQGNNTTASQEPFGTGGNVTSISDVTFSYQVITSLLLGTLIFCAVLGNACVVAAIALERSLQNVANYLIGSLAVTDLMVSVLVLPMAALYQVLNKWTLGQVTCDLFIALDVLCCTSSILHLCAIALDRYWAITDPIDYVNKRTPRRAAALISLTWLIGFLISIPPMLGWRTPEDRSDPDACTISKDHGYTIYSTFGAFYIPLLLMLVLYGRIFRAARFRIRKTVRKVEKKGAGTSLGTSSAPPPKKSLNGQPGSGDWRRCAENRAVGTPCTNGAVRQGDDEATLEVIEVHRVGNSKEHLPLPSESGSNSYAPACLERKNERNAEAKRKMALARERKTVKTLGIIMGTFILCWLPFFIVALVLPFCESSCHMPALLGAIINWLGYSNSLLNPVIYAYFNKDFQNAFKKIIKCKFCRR", "experiment": "Displacement of [35S]GTPgammaS from 5HT1A in Sprague-Dawley rat brainstem by measuring efficacy incubated for 60 mins by radioligand binding assay relative to control", "format": "tissue-based"}, "[13]": {"biological_target": "T1, Transient receptor potential cation channel subfamily A member 1", "experiment": "Agonist activity at TRPA1 (unknown origin) activation"}, "[14]": {"biological_target": "5-hydroxytryptamine receptor 1A (Rattus norvegicus, UniProt P19327)", "sequence (P19327 whole entry)": "as above", "experiment": "Displacement of [35S]GTPgammaS from 5HT1A in Sprague-Dawley rat brainstem incubated for 60 mins by radioligand binding assay", "format": "tissue-based"}, "[15]": {"biological_target": "T1, Transient receptor potential cation channel subfamily A member 1", "experiment": "Agonist activity at TRPA1 (unknown origin) ion channel"}, "[16]": {"biological_target": "5-hydroxytryptamine receptor 1A (Homo sapiens, UniProt P08908)", "experiment": "Displacement of [35S]GTPgammaS from 5HT1A in […] incubated for 60 mins by radioligand binding assay", "format": "cell-based"}, "Cannabinoid receptor 1 [17]": {"biological_target": "Cannabinoid receptor 1 (Mus musculus, UniProt P47746)", "experiment": "Agonist activity at CB1 receptor in albino MF1 mouse vas deferens assessed as inhibition of electrically evoked vas deferens contraction by incubated for 13 mins followed by electrical stimulation for 2 mins", "format": "functional"}, "[18]": {"biological_target": "Transient receptor potential cation channel subfamily V member 6 (Homo sapiens, UniProt Q9H1D0)", "sequence (Q9H1D0 whole entry)": "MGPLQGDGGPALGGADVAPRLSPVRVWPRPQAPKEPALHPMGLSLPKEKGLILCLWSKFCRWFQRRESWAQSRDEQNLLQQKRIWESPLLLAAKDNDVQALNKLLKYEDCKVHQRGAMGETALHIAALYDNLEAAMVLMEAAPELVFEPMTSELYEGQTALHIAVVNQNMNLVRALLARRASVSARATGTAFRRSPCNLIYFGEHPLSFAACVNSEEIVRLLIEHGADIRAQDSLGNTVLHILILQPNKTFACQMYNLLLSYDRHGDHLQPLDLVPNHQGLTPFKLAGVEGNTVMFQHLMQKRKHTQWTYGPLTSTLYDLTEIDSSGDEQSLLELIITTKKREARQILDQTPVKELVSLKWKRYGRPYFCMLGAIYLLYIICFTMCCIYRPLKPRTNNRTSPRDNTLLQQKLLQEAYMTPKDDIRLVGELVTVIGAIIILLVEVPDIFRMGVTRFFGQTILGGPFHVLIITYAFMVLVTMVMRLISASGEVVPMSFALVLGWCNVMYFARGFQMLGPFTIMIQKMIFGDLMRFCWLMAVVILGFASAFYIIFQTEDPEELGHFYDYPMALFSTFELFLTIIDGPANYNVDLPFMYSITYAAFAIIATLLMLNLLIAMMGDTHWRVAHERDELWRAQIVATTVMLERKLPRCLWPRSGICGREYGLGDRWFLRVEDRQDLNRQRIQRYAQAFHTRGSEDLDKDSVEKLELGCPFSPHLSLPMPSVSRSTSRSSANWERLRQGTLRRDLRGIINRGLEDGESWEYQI", "experiment": "Inhibition of TRPV6 channel (unknown origin) by Patch-clamp assay"}, "Cannabinoid receptor 2 [19]": {"biological_target": "T4, Cannabinoid receptor 2", "experiment": "Agonist activity at human CB2 receptor transfected in CHO cells assessed as inhibition of cyclic AMP production", "format": "functional, cell-based"}, "Cannabinoid receptor 2 [20]": {"biological_target": "T4, Cannabinoid receptor 2", "experiment": "Inhibition of human CB2 receptor", "format": "functional", "conditions": "concentration not given here"}, "[21]": {"biological_target": "T6, Transient receptor potential cation channel subfamily V member 2 (Homo sapiens, UniProt Q9Y5S1)", "T6 sequence (Q9Y5S1 whole entry)": "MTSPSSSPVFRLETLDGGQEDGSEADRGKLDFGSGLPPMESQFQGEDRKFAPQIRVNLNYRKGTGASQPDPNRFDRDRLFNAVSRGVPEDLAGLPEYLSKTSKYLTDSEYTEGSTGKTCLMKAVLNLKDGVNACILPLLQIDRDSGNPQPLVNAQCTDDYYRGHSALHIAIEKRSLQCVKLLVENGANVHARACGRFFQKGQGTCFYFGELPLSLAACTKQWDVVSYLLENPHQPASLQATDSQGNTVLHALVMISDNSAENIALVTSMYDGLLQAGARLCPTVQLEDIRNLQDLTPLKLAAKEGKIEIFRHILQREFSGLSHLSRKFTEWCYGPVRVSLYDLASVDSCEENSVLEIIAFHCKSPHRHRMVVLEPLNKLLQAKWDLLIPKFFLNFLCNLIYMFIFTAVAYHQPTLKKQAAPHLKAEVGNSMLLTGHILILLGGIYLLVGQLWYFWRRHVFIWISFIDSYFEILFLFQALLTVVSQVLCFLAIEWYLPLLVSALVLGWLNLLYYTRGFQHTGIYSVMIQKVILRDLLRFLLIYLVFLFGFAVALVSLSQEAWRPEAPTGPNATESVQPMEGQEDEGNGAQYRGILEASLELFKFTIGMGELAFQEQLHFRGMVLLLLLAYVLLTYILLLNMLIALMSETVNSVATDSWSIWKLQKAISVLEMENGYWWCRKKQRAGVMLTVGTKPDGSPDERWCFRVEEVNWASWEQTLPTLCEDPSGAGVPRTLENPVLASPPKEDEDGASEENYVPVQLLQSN", "experiment": "Agonist activity at ionomycin-stimulated TRPV2 (unknown origin) activation"}, "[22]": {"biological_target": "T7, Transient receptor potential cation channel subfamily V member 4 (Homo sapiens, UniProt Q9HBA0)", "T7 sequence (Q9HBA0 whole entry)": "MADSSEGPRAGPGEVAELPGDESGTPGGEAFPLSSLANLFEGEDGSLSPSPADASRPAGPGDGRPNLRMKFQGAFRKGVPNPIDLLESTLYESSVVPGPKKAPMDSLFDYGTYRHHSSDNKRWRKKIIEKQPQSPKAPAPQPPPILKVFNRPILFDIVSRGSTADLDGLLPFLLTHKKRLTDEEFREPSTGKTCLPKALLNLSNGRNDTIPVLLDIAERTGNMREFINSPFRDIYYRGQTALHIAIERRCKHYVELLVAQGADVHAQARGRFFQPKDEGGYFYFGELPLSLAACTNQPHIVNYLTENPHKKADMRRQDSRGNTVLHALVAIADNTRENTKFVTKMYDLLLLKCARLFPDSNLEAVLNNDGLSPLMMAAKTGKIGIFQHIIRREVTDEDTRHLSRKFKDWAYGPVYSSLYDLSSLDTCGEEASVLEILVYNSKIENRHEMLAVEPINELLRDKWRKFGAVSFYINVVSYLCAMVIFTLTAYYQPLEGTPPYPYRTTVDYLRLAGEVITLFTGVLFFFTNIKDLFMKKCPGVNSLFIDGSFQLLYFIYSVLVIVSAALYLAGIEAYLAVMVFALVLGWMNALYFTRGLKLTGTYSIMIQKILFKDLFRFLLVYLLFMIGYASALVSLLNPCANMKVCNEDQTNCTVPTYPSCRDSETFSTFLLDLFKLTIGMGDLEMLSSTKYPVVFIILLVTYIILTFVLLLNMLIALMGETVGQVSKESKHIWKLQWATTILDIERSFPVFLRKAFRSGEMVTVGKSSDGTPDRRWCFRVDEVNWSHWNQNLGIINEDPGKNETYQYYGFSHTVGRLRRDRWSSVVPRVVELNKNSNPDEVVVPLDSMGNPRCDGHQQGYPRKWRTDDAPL", "experiment": "Agonist activity at ionomycin-stimulated TRPV4 (unknown origin) activation assessed as efficacy relative to control", "conditions": "filed as agonist"}, "[23]": {"biological_target": "T3, Transient receptor potential cation channel subfamily V member 3", "experiment": "Agonist activity at ionomycin-stimulated TRPV3 (unknown origin) channel desensitization in presence of carvacrol"}, "[24]": {"biological_target": "T5, G-protein coupled receptor 55", "experiment": "Antagonist activity at GPR55 (unknown origin) expressed in HEK293 cells assessed as LPI-stimulated ERK1/2 phosphorylation by measuring efficacy relative to control", "format": "functional, cell-based", "conditions": "filed as antagonist"}, "[25]": {"biological_target": "5-hydroxytryptamine receptor 1A (Homo sapiens) (UniProt P08908)", "experiment": "Displacement of [35S]GTPgammaS from 5HT1A in […] by measuring efficacy incubated for 60 mins by radioligand binding assay relative to control", "format": "cell-based"}, "[26]": {"biological_target": "T6, Transient receptor potential cation channel subfamily V member 2", "experiment": "Agonist activity at ionomycin-stimulated TRPV2 (unknown origin) channel desensitization in presence of lysophosphatidylcholine"}, "[27]": {"biological_target": "T7, Transient receptor potential cation channel subfamily V member 4", "experiment": "Agonist activity at ionomycin-stimulated TRPV4 (unknown origin) activation"}, "[28]": {"biological_target": "T7, Transient receptor potential cation channel subfamily V member 4", "experiment": "Agonist activity at ionomycin-stimulated TRPV4 (unknown origin) channel desensitization in presence of 4alphaPDD"}, "[29]": {"biological_target": "T8, Transient receptor potential cation channel subfamily V member 3 (Homo sapiens) (UniProt Q8NET8)", "T8 sequence (whole entry)": "T3 sequence (Q8NET8 whole entry)", "experiment": "Agonist activity at ionomycin-stimulated TRPV3 (unknown origin) activation assessed as efficacy relative to control", "conditions": "filed as agonist"}, "[30]": {"biological_target": "Transient receptor potential cation channel subfamily V member 5 (Homo sapiens, UniProt Q9NQA5)", "experiment": "Inhibition of TRPV5 channel (unknown origin) by Patch-clamp assay"}, "Cannabinoid receptor 2 [31]": {"biological_target": "T4, Cannabinoid receptor 2", "experiment": "Agonist activity at CB2 receptor (unknown origin) expressed in CHO cell membranes assessed as increase in [35S]GTPgammaS binding by measuring efficacy incubated for 60 mins by liquid scintillation spectrometry analysis relative to control", "format": "functional", "conditions": "Membrane, filed as agonist"}, "[32]": {"biological_target": "T2, Transient receptor potential cation channel subfamily V member 1", "experiment": "Agonist activity at ionomycin-stimulated TRPV1 (unknown origin) channel desensitization in presence of capsaicin"}, "[33]": {"biological_target": "T9, Transient receptor potential cation channel subfamily V member 2 (Homo sapiens) (UniProt Q9Y5S1)", "T9 sequence (whole entry)": "T6 sequence (Q9Y5S1 whole entry)", "experiment": "Agonist activity at ionomycin-stimulated TRPV2 (unknown origin) activation assessed as efficacy relative to control", "conditions": "filed as agonist"}}}
{"smiles": "CCCc1cc(O)c2c(c1)OC(C)(C)[C@@H]1CCC(C)=C[C@@H]21", "note": "[TETRAHYDROCANNABIVARIN]", "values": [{"measurement": "IC50", "setting": "[1]", "value": 3.07, "unit": "µM"}, {"measurement": "Efficacy", "setting": "[2]", "value": 68, "unit": "%"}, {"measurement": "EC50", "setting": "[3]", "value": 0.2, "unit": "µM"}, {"measurement": "EC50", "setting": "[4]", "value": 3.8, "unit": "µM"}, {"measurement": "EC50", "setting": "[5]", "value": 1.5, "unit": "µM"}, {"measurement": "EC50", "setting": "Cannabinoid receptor 2 [6]", "value": 0.098, "unit": "µM"}, {"measurement": "IC50", "setting": "[7]", "value": 0.87, "unit": "µM"}, {"measurement": "EC50", "setting": "[8]", "value": 0.88, "unit": "µM"}, {"measurement": "Ki", "setting": "Cannabinoid receptor 1 [9]", "value": 1, "unit": "µM"}, {"measurement": "IC50", "setting": "[10]", "value": 0.02, "unit": "µM"}, {"measurement": "Efficacy", "setting": "[11]", "value": 243, "unit": "%"}, {"measurement": "Efficacy", "setting": "[12]", "value": 35, "unit": "%"}, {"measurement": "EC50", "setting": "[13]", "value": 1.5, "unit": "µM"}, {"measurement": "EC50", "setting": "[14]", "value": 0.0054, "unit": "µM"}, {"measurement": "EC50", "setting": "[15]", "value": 0.07, "unit": "µM"}, {"measurement": "EC50", "setting": "[16]", "value": 0.028, "unit": "µM"}, {"measurement": "EC50", "setting": "Cannabinoid receptor 1 [17]", "value": 12.7, "unit": "µM"}, {"measurement": "IC50", "setting": "[18]", "value": 9.4, "unit": "µM"}, {"measurement": "EC50", "setting": "Cannabinoid receptor 2 [19]", "value": 0.038, "unit": "µM"}, {"measurement": "inhibition", "setting": "Cannabinoid receptor 2 [20]", "value": 0.143, "unit": "%"}, {"measurement": "EC50", "setting": "[21]", "value": 4.1, "unit": "µM"}, {"measurement": "Efficacy", "setting": "[22]", "value": 60, "unit": "%"}, {"measurement": "IC50", "setting": "[23]", "value": 3, "unit": "µM"}, {"measurement": "Efficacy", "setting": "[24]", "value": 61, "unit": "%"}, {"measurement": "Efficacy", "setting": "[25]", "value": 134, "unit": "%"}, {"measurement": "IC50", "setting": "[26]", "value": 0.8, "unit": "µM"}, {"measurement": "EC50", "setting": "[27]", "value": 6.4, "unit": "µM"}, {"measurement": "IC50", "setting": "[28]", "value": 3.2, "unit": "µM"}, {"measurement": "Efficacy", "setting": "[29]", "value": 72, "unit": "%"}, {"measurement": "IC50", "setting": "[30]", "value": 4.8, "unit": "µM"}, {"measurement": "Efficacy", "setting": "Cannabinoid receptor 2 [31]", "value": 40, "unit": "%"}, {"measurement": "IC50", "setting": "[32]", "value": 1.3, "unit": "µM"}, {"measurement": "Efficacy", "setting": "[33]", "value": 74, "unit": "%"}]}
